Assay results taken from patent publication US20090305993A1, “METHODS AND COMPOSITION FOR THE TREATMENT OF GASTROINTESTINAL DISORDERS” (IRONWOOD PHARMACEUTICALS, INC., priority 2006, published 2009).
Where a SMILES comes first, the peptide text is derived from it. Bridges are numbered along the chain shown (N, C = ends).

Tests used:
mice = assay: murine gastrointestinal transit (GIT) assay, acute dosing; assay type: in vivo, mouse
Method: In order to determine whether the peptides increase the rate of gastrointestinal transit, the peptides and controls were tested using a murine gastrointestinal transit (GIT) assay (Moon et al. Infection and Immunity 25:127, 1979). In this assay, charcoal, which can be readily visualized in the gastrointestinal tract is administered to mice after the administration of a test compound. The distance traveled by the charcoal is measured and expressed as a percentage of the total length of the […].
Mice were fasted with free access to water for 12 to 16 hours before the treatment with peptide or control buffer. The peptides were orally administered at 1 μg/kg-1 mg/kg of peptide in buffer (20 mM Tris pH 7.5) 7 minutes before being given an oral dose of 5% Activated Carbon (Aldrich 242276-250G). Control mice were administered buffer only before being given a dose of Activated Carbon. After 15 minutes, the mice were sacrificed and their intestines from the stomach to the cecum were dissected. The total length of the intestine as well as the distance traveled from the stomach to the charcoal front was measured for each animal and the results are expressed as the percent of the total length of the intestine traveled by the charcoal front. All results are reported as the average of 10 mice±standard deviation. A comparison of the distance traveled by the charcoal between the mice treated with peptide versus the mice treated with vehicle alone was performed using a Student's t test and a statistically significant difference was considered for P<0.05. P-values are calculated using a two-sided T-Test assuming unequal variances.

carboxypeptidase A = target: T1, carboxypeptidase A (Homo sapiens, UniProt P15085); assay: in vitro proteolytic stability, carboxypeptidase A
T1 sequence (P15085 111-419): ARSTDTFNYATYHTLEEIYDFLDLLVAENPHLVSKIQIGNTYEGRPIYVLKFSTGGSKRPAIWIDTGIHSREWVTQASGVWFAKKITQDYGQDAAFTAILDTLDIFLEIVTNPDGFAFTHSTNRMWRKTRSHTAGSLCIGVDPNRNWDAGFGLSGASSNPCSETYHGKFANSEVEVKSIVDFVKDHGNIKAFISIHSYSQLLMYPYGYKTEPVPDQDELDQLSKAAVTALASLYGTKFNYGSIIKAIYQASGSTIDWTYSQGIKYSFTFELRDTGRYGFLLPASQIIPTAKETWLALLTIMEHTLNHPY
Method: The stability of SEQ ID NO:3 in the presence of several mammalian digestive enzymes was determined. SEQ ID NO:3 was exposed to a variety of in vitro conditions including digestive enzymes and low ph environments designed to simulate gastric fluid. SEQ ID NO:3 was incubated with chymotrypsin, trypsin, pepsin, aminopeptidase, carboxypeptidase A, and simulated gastric fluid (sgf) at ph 1.0. Samples were collected at 0, 3, and 24 h for all conditions except pepsin digestion and the SGF. For the latter two conditions, samples were obtained at 0, 1, and 3 h. Negative control samples were prepared for initial and final time points. A separate, positive activity control was run in parallel to SEQ ID NO:3. All samples were analyzed by LC/MS
Five (5) μL of a 40 μg/mL carboxypeptidase inhibitor (carboxypeptidase inhibitor from potato tuber (Sigma-Aldrich, C0279) stock was added to each control sample (0 and 24 h), for a final concentration of 0.4 μg/mL. All control and test (0, 3 and 24 h) samples were incubated at 37° C. for 5 min. Twenty (20) μL of a 0.01 mg/mL carboxypeptidase A (Carboxypeptidase A from human pancreas; Sigma-Aldrich, C5358) stock was added to each sample. The samples were returned to the 37° C. water bath. The reaction was quenched with 5 μL of a 40 μg/mL carboxypeptidase inhibitor at the proper time point. No extra carboxypeptidase inhibitor was added to the control samples since there was already inhibitor present. Samples were subsequently flash frozen in liquid nitrogen, and stored at −80° C. until analysis. Upon analysis, samples were thawed and transferred to a 1 mL 96-well deep microtiter plate. […] These standards were used to generate a standard curve for quantification of samples. When necessary, the standard curves were also used to calculate the concentration of the corresponding digestion product. Ten (10) μL injections were made of each sample and standard.
To further study the SEQ ID NO:3 carboxypeptidase A digestion product, samples of 0.01 mg/mL SEQ ID NO:3 were prepared in the carboxypeptidase A reaction buffer at a total volume of 500 μL in 2 mL eppendorf tubes. Triplicate samples were prepared for the following time points: 0, 15, 30, 60, 120, 180 and 240 min. The samples were incubated at 37° C. for 5 min. Twenty (20) μL of a 0.01 mg/mL carboxypeptidase A stock were added to each sample and returned to the 37° C. water bath. The reactions were quenched with 5 μL of a 40 μg/mL carboxypeptidase inhibitor at the proper time points. Samples were subsequently flash frozen in liquid nitrogen, and stored at −80° C. until analysis. Upon analysis, samples were thawed and transferred to a 1 mL 96-well plate. Standards of SEQ ID NO:3 were prepared in carboxypeptidase A reaction buffer at 0.625, 1.25, 2.50, 5.00, and 10.00 μg/mL concentrations. These standards were used to generate a standard curve for quantification of samples. When necessary, the standard curves were also used to calculate the concentration of the corresponding digestion product. Ten (10) μL injections were made of each sample and standard. If the formation of a digestion product was evident, then a spectral analysis was used to determine the mass of the digestion product, and predict its possible identity.

[1] = system: wild-type or GC-C KO mice; conditions: 5 μg into loop, FIG. 17a
Method: The effect of SEQ ID NO:3 on cGMP levels and secretion were studied by injecting SEQ ID NO:3 directly into an isolated loop in either wild-type or GC-C KO mice. This was done by surgically ligating a loop in the small intestine of the mouse. […] The loop was roughly centered and was a length of 1-3 cm. The loops were injected with 100 μl of either SEQ ID NO:3 (5 μg) or vehicle (20 mM Tris, pH 7.5 or Krebs Ringer, 10 mM Glucose, HEPES buffer (KRGH)). Following a recovery time of 90 minutes the loops were excised. Weights were recorded for each loop before and after removal of the fluid contained therein. The length of each loop was also recorded. A weight to length ratio (W/L) for each loop was calculated to determine the effects of SEQ ID NO:3 on secretion.
To determine the effect of SEQ ID NO:3 on cGMP activity, fluid from the loop was collected in ice-cold trichloracetic acid (TCA) and stored at −80° C. for use in an assay to measure cGMP levels in the fluid. Intestinal fluid samples were TCA extracted, and cyclic GMP was measured by EIA according to procedures outlined in the Cayman Chemical Cyclic GMP EIA kit (Cayman Chemical, Ann Arbor, Mich.) to determine cyclic GMP levels in the intestinal fluid of the mouse in the presence of either SEQ ID NO:3 or vehicle.

C[C@@H]1NC(=O)[C@@H]2CCCN2C(=O)[C@H](CC(N)=O)NC(=O)[C@@H]2CSSC[C@H](N)C(=O)N[C@H]3CSSC[C@H](NC1=O)C(=O)N[C@@H]([C@@H](C)O)C(=O)NCC(=O)N[C@H](C(=O)N[C@@H](Cc1ccc(O)cc1)C(=O)O)CSSC[C@H](NC(=O)[C@H](Cc1ccc(O)cc1)NC(=O)[C@H](CCC(=O)O)NC3=O)C(=O)N2 [SEQ ID NO:3] (H-CCEYCCNPACTGCY-OH; disulfide 1-6, 2-10, 5-13; N-terminus and C-terminus assumed)
intestinal transit rates versus Tris buffer and Zelnorm (mice; chemically synthesized peptides, FIG. 4b): increase intestinal transit rates more than either Tris buffer alone or an equivalent dose of Zelnorm® | gastrointestinal transit rate (mice; oral, SEQ ID NO:4 0.1 mg/kg, Zelnorm 0.1 mg/kg, FIG. 3a, 3b): increase gastrointestinal transit rate | proteolysis by carboxypeptidase A (carboxypeptidase A; 37° C., FIG. 13a, 13b): some proteolysis | Cleavage of SEQ ID NO: 3 by proteolytic substance (carboxypeptidase A; Carboxypetidase A, 37° C., up to 24 h): Yes | average calculated product concentrations (carboxypeptidase A; T3 h samples): 1.3 (+/−0.06) μg/mL | average calculated product concentrations (carboxypeptidase A; T24 h samples): 1.3 (+/−0.04) μg/mL | calculated concentrations of parent (carboxypeptidase A; all samples): 8.4 (+/−1.2) μg/mL | average concentration (carboxypeptidase A; carboxypeptidase A digestion of SEQ ID NO:3, T0): 5115 (+/−121) nM | average concentration (carboxypeptidase A; carboxypeptidase A digestion of SEQ ID NO:3, T240 (240 min)): 4438 (+/−188) nM | calculated concentrations for the products (carboxypeptidase A; time 0 control (with inhibitor)): 0.8 (+/−0.02) μg/mL | calculated concentrations for the products (carboxypeptidase A; time 0 samples): 0.8 (+/−0.01) μg/mL | cGMP activity in ligated loop fluid [1]: no effect | secretion (loop weight to length ratio) [1]: no effect
